Experimental data taken from PubChem BioAssay (NCI).
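Tested at 5 concentrations; 48 h exposure; 96-well plates; endpoints linearly interpolated, else capped at highest concentration. At the GI50, growth is halved. TGI: total growth inhibition.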

How the values were obtained:
Experiment in all cases: NCI anticancer screen, dose series, 48 h
[1] = tested on: A498 renal
[2] = tested on: HT29 colon
[3] = tested on: IGROV1 ovarian
[4] = tested on: MDA-MB-435
[5] = tested on: NCI-H226 lung
[6] = tested on: OVCAR-3 ovarian
[7] = tested on: PC-3 prostate
[8] = tested on: SK-MEL-28 melanoma
[9] = tested on: SW-620 colon
[10] = tested on: HL-60(TB) leukemia

SMILES	TGI [1] [µM]	TGI [2] [µM]	TGI [3] [µM]	TGI [4] [µM]	TGI [5] [µM]	TGI [6] [µM]	TGI [7] [µM]	TGI [8] [µM]	TGI [9] [µM]	TGI [10] [µM]	GI50 [3] [µM]	GI50 [5] [µM]
O=C1NCC(NC(=O)C(F)(F)F)c2c(Br)sc(Br)c21 (stereo unspecified)	> 100	> 100	> 100	> 100	> 100	> 100	> 100	> 100	> 100			
Nc1nc(Cl)cc(NCC2(CO)CCC(CCc3ccccc3)C2)n1 (stereo unspecified)	26.8	21.4	37	28.3	36.1	28.9	43.4	37.3	36	33.1		
CCCCNC(=S)N/N=C/c1cccc(C)n1	> 100		> 100	> 100	62.2	> 100	> 100	> 100	> 100	> 100		
CNc1ncnc2c1cnn2COCC(O)CO (stereo unspecified)	> 100	> 100	> 100	> 100	> 100	> 100	> 100	> 100	> 100			
N#CC(N=Nc1ccc(Cl)cc1)c1nc2ccccc2o1 (stereo unspecified)	> 100	> 100		> 100	> 100	> 100	> 100	> 100		> 100		
NNC1=N/C(=C\c2ccco2)C(Cl)=N1	> 100	> 100	> 100	> 100	> 100	> 100	> 100	> 100	> 100	51.4		
CC(C)(C)OC(=O)NCCC(N)=S	> 100	> 100	> 100	> 100	> 100	> 100	> 100	> 100	> 100	> 100		
Nc1ccc(-c2nc3ccccc3s2)cc1C(F)(F)F	31.4	29.1	21.1	30.2	34.4	30.2	29.1	33.9	35.3	36.9	2.6	15.3
O=C(Oc1cc(=O)c(OC(=O)c2ccccc2)co1)c1ccccc1	> 100	> 100	> 100	> 100	> 100	> 100	> 100	> 100	> 100	> 100		
CCOC(=O)c1nc2ccc(C(F)(F)F)cc2nc1Oc1ccc(C#N)cc1	57.1	77.9	28.5	> 100	34.8		36	> 100	> 100	> 100		
O=[N+]([O-])c1ccc(/C=C/c2cc(-c3ccccc3)nc3ccc4ccccc4c23)cc1	> 100	> 100	> 100	> 100	> 100	> 100	> 100	> 100	> 100	> 100		
C/C1=C\CC[C@@]2(C)O[C@@H]2C[C@@H](C2(C)CO2)CC/C(C)=C/CC1 (stereo partly specified)	> 100	> 100	> 100	46.4	30.3	48.9	82.2	57.6	> 100	71.9		
COC(=O)c1cc2c(cc1CC1Cc3cc4c(cc3C1)CCC4)CCC2	> 100	> 100	> 100	> 100	> 100	> 100	> 100	80.4	> 100	32.7		
C[C@]12CC[C@@H]3c4ccc(O)cc4CC[C@H]3[C@@H]1C/C(=C\c1ccncc1)[C@@H]2O	17.7	> 100	28.7	> 100	42.1	30.9	76.2	> 100	> 100	44.9		
Cc1ccc(OCCn2cc(Nc3ccccc3)c(=O)n(CCOc3ccc(C)cc3)c2=O)cc1	> 100	> 100	> 100	> 100	> 100	> 100	> 100	> 100	> 100			
CC(=O)c1cccn1/C=C(\OC(=O)OC(C)(C)C)c1ccc[nH]1	> 100		> 100	> 100	> 100	> 100	> 100	> 100	> 100	98.1		
NC(CC1=CS(=O)(=O)c2ccc(Cl)cc21)C(=O)O (stereo unspecified)	> 100	> 100	> 100	> 100	> 100	> 100	> 100	> 100	> 100			
CN(Cc1ccccc1)c1cc(=O)n(C)c(=O)[nH]1	> 100	> 100		> 100	> 100	> 100	> 100	> 100	> 100	> 100		
O=C(NCCCN(CCCCN(CCCNC(=O)C(F)(F)F)Cc1ccc2ccccc2c1)Cc1ccc2ccccc2c1)C(F)(F)F	> 100	2.57	> 100	3.87	> 100	> 100	> 100	5.88	> 100			
